Measurements published in ChEMBL document CHEMBL1136413, “Caged RNase: photoactivation of the enzyme from perfect off-state by site-specific incorporation of 2-nitrobenzyl moiety” (Bioorg Med Chem Lett, 2003).
Non-standard residues stand in square brackets, D forms with d. Residues, ends and D or L forms follow the SMILES beside them. *: point of attachment. X2 = COC(=O)C(N*)c1ccccc1[N+](=O)[O-]; X3 = O=C(OCc1ccccc1[N+](=O)[O-])*; X1 = O=[N+]([O-])c1ccccc1CO*; Nle = CCCC[C@H](N)C(=O)O

What was measured:
[1] = Perfect off-state by site-specific incorporation of o-nitrobenzyl (o-NB) unit into RNase S' was determined after photolysis at 10 x E5 M/min
[2] = Perfect off-state by site-specific incorporation of o-nitrobenzyl (o-NB) unit into RNase S' was determined before photolysis at 10 x E5 M/min
[3] = Michaelis-Menten parameter(Kcat) value for the incorporation of photo-labile caged moiety into a proximity to the active site
[4] = Michaelis-Menten parameter(Km) value for the incorporation of photo-labile caged moiety into a proximity to the active site
[5] = Michaelis-Menten parameter value for the incorporation of photo-labile caged moiety into a proximity to the active site

Row | SMILES | RNase S' enzyme activity [1] | Photolysis [2] | k cat [3] [s⁻¹] | Km [4] [µM] | k cat [5] [s⁻¹]
1 | CCCC[C@H](NC(=O)[C@H](Cc1c[nH]cn1)NC(=O)[C@H](CCC(N)=O)NC(=O)[C@H](CCCN=C(N)N)NC(=O)[C@H](CCC(=O)O)NC(=O)[C@H](Cc1ccccc1)NC(=O)[C@H](CCCCN)NC(=O)[C@H](C)NC(=O)[C@H](C)NC(=O)[C@H](C)NC(=O)[C@@H](NC(=O)[C@H](CCC(=O)O)NC(=O)[C@@H](N)CCCCNC(=O)OCc1ccccc1[N+](=O)[O-])[C@@H](C)O)C(=O)N[C@@H](CC(=O)O)C(=O)N[C@@H](CO)C(=O)O (H-K(X3)ETAAAKFERQH[Nle]DS-OH) | 1.04 | 1.01 |  |  | 
2 | CCCC[C@H](NC(=O)[C@H](Cc1c[nH]cn1)NC(=O)[C@H](CCC(N)=O)NC(=O)[C@H](CCCN=C(N)N)NC(=O)[C@H](CCC(=O)O)NC(=O)[C@H](Cc1ccccc1)NC(=O)[C@H](CCCCN)NC(=O)[C@H](C)NC(=O)[C@H](C)NC(=O)[C@H](C)NC(=O)[C@@H](NC(=O)[C@H](CCC(=O)OCc1ccccc1[N+](=O)[O-])NC(=O)[C@@H](N)CCCCN)[C@@H](C)O)C(=O)N[C@@H](CC(=O)O)C(=O)N[C@@H](CO)C(=O)O (H-KE(X1)TAAAKFERQH[Nle]DS-OH) | 0.81 | 0.96 |  |  | 
3 | CCCC[C@H](NC(=O)[C@H](Cc1c[nH]cn1)NC(=O)[C@H](CCC(N)=O)NC(=O)[C@H](CCCN=C(N)N)NC(=O)[C@H](CCC(=O)O)NC(=O)[C@H](Cc1ccccc1)NC(=O)[C@H](CCCCNC(=O)OCc1ccccc1[N+](=O)[O-])NC(=O)[C@H](C)NC(=O)[C@H](C)NC(=O)[C@H](C)NC(=O)[C@@H](NC(=O)[C@H](CCC(=O)O)NC(=O)[C@@H](N)CCCCN)[C@@H](C)O)C(=O)N[C@@H](CC(=O)O)C(=O)N[C@@H](CO)C(=O)O (H-KETAAAK(X3)FERQH[Nle]DS-OH) | 1.04 | 1.1 |  |  | 
4 | CCCC[C@H](NC(=O)[C@H](Cc1c[nH]cn1)NC(=O)[C@H](CCC(N)=O)NC(=O)[C@H](CCCN=C(N)N)NC(=O)[C@H](CCC(=O)OCc1ccccc1[N+](=O)[O-])NC(=O)[C@H](Cc1ccccc1)NC(=O)[C@H](CCCCN)NC(=O)[C@H](C)NC(=O)[C@H](C)NC(=O)[C@H](C)NC(=O)[C@@H](NC(=O)[C@H](CCC(=O)O)NC(=O)[C@@H](N)CCCCN)[C@@H](C)O)C(=O)N[C@@H](CC(=O)O)C(=O)N[C@@H](CO)C(=O)O (H-KETAAAKFE(X1)RQH[Nle]DS-OH) | 0.97 | 0.99 |  |  | 
5 | CCCC[C@H](NC(=O)[C@H](Cc1c[nH]cn1)NC(=O)[C@H](CCC(=O)NC(C(=O)OC)c1ccccc1[N+](=O)[O-])NC(=O)[C@H](CCCN=C(N)N)NC(=O)[C@H](CCC(=O)O)NC(=O)[C@H](Cc1ccccc1)NC(=O)[C@H](CCCCN)NC(=O)[C@H](C)NC(=O)[C@H](C)NC(=O)[C@H](C)NC(=O)[C@@H](NC(=O)[C@H](CCC(=O)O)NC(=O)[C@@H](N)CCCCN)[C@@H](C)O)C(=O)N[C@@H](CC(=O)O)C(=O)N[C@@H](CO)C(=O)O (stereo partly specified) (H-KETAAAKFERE(X2)H[Nle]DS-OH) | 0.37 | 0 |  |  | 
6 | CCCC[C@H](NC(=O)[C@H](Cc1c[nH]cn1)NC(=O)[C@H](CCC(N)=O)NC(=O)[C@H](CCCN=C(N)N)NC(=O)[C@H](CCC(=O)O)NC(=O)[C@H](Cc1ccccc1)NC(=O)[C@H](CCCCN)NC(=O)[C@H](C)NC(=O)[C@H](C)NC(=O)[C@H](C)NC(=O)[C@@H](NC(=O)[C@H](CCC(=O)O)NC(=O)[C@@H](N)CCCCN)[C@@H](C)O)C(=O)N[C@@H](CC(=O)OCc1ccccc1[N+](=O)[O-])C(=O)N[C@@H](CO)C(=O)O (H-KETAAAKFERQH[Nle]D(X1)S-OH) | 0.78 | 0.29 | 0.054 | 1130 | 
7 | CCCC[C@H](NC(=O)[C@H](Cc1c[nH]cn1)NC(=O)[C@H](CCC(N)=O)NC(=O)[C@H](CCCN=C(N)N)NC(=O)[C@H](CCC(=O)O)NC(=O)[C@H](Cc1ccccc1)NC(=O)[C@H](CCCCN)NC(=O)[C@H](C)NC(=O)[C@H](C)NC(=O)[C@H](C)NC(=O)[C@@H](NC(=O)[C@H](CCC(=O)O)NC(=O)[C@@H](N)CCCCN)[C@@H](C)O)C(=O)N[C@@H](CC(=O)O)C(=O)N[C@@H](CO)C(=O)O (H-KETAAAKFERQH[Nle]DS-OH) |  | 1.02 |  |  | 0.0678
